Here are results for 9 compounds from ChEMBL document CHEMBL1201862, “PubChem BioAssay data set” (2004).

Several values for one entry are separate records, joined by “and”; a condition that tells them apart may be missing. Equal entries are not always repeated.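 Interpolation was linear, between the two tested concentrations surrounding the appropriate level; five concentrations were tested over 48 hours in 96-well plates. Abbreviation: GI50, concentration required for 50% inhibition of growth.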 Activity calls are given as the source filed them. Cut-off read from the data, not from the text of the source: active = GI50 up to about 1.1 µM and inactive = higher.

Holding throughout (assay): inhibition of tumour cell growth, NCI panel, 48 h
Assay [1] has as its system 786-0.
The subject of assay [2] is A498.
Assay [3] relates to CAKI-1.
Assay [4] relates to COLO 205.
Assay [5] concerns DU-145.
The test system of assay [6] is HOP-92.
In assay [7] the test system is HT-29.
Assay [8] deals with M14.
Assay [9] deals with MCF7.
Assay [10] has as its system MDA-MB-231.
For assay [11], the system named is NCI-H23.
Assay [12] deals with NCI-H522.
The test system of assay [13] is OVCAR-4.
Assay [14] relates to OVCAR-8.
The test system of assay [15] is RPMI-8226.
In assay [16] the test system is SK-OV-3.
Assay [17] has as its system SR.
In assay [18] the test system is SW-620.
Assay [19] has as its system U-251.
Assay [20] deals with UACC-257.

Consider `CN(C)c1nc2oc(-c3ccccc3)c(-c3ccccc3)c2c2nnnn12`, for which the GI50 in assay [1], in assay [2], in [3], in assay [4], in [5] and in assay [6] was > 100 µM (inactive) throughout. The GI50 in assay [7], in assay [8], in [9], in [10], in [11] and in assay [12] was > 100 µM (inactive) each time. The GI50 in assay [13], in [14], in assay [15], in assay [16], in assay [17] and in assay [18] was > 100 µM (inactive) in each case. The GI50 in assay [19] and in assay [20] was > 100 µM (inactive) in each case.

Regarding `COC(=O)C1=C(OC(=O)/C(=C/c2ccccc2)c2ccc(Cl)cc2)C(C(=O)OC)[C@@]2(O)[C@@H](C(=O)OC)[C@H](C)C[C@@H]1[C@@H]2C(=O)OC` (stereo not given in full), the GI50 in [1] is > 100 µM (inactive); in assay [2] it was > 100 µM (inactive); in [3], > 100 µM (inactive); in assay [4], > 100 µM (inactive); in assay [5], > 100 µM (inactive); in [6] it was 29.1 µM (inactive). The GI50 in assay [7], in assay [8], in [9], in assay [10], in assay [11] and in [12] was > 100 µM (inactive) throughout. Also, the GI50 in assay [13], in assay [14], in assay [15], in [16], in assay [17] and in assay [18] was > 100 µM (inactive) each time. For the same compound, the GI50 in [19] and in [20] was > 100 µM (inactive) each time.

Turning to `COc1cc(C(=O)OC2CC(C)=CC[C@@]3(C)CC[C@](O)(C(C)C)C23)ccc1O` (stereo not given in full), the GI50 in assay [1] was 17.3 µM (inactive); in assay [2], 18.9 µM (inactive); in [3], 16.3 µM (inactive); in assay [4], 20 µM (inactive); in [5], 17.9 µM (inactive); in [6], 16.3 µM (inactive). The GI50 in assay [7] is 15.9 µM (inactive); in assay [8], 17 µM (inactive); in assay [9], 12.4 µM (inactive); in [10], 15 µM (inactive); in [11], 17.8 µM (inactive); in assay [12], 14.3 µM (inactive). For the same compound, the GI50 in assay [13] was 15.9 µM (inactive); in assay [14], 18.2 µM (inactive); in [15] it was 25.6 µM (inactive); in assay [16] it was 15.4 µM (inactive); in assay [17], 25.5 µM (inactive); in [18] it was 28.5 µM (inactive). Further, the GI50 is 31.3 µM (inactive) in assay [19] and 15.5 µM (inactive) in [20].

`Cn1c(=O)nc2n(-c3ccc(Cl)cc3)c3cc(Cl)ccc3nc-2c1=O`: the GI50 in assay [1] is 10.5 µM (inactive); in [2], 14.3 µM (inactive); in assay [3], 10.9 µM (inactive); in assay [4], 2.11 µM (inactive); in [5] it was 15.6 µM (inactive); in [6], 7.31 µM (inactive). Besides, the GI50 is 2.62 µM (inactive) in assay [7]; 2.07 µM (inactive) in [8]; 0.577 µM (active) in assay [9]; 3.17 µM (inactive) in assay [10]; 3.33 µM (inactive) in assay [11]; 2.99 µM (inactive) in assay [12]. Also, the GI50 in [13] is 1.32 µM (inactive); in assay [14], 2.72 µM (inactive); in assay [15] it was 3.79 µM (inactive); in [16] it was 18.3 µM (inactive); in assay [17], 3.93 µM (inactive); in assay [18], 2.12 µM (inactive). For the same compound, the GI50 in [19] was 17.7 µM (inactive); in assay [20], 1.82 µM (inactive).

For the compound `CCC(CC)C(=O)OC[n+]1cccc(-c2c(COC(=O)NC(C)C)c(COC(=O)NC(C)C)c3n2CCC3)c1`, the GI50 in assay [1] is 50 µM (inactive); in [2] it was > 100 µM (inactive); in assay [3], 49.4 µM (inactive); in assay [4] it was > 100 µM (inactive); in assay [5], > 100 µM (inactive); in assay [6], 72.3 µM (inactive). Also, the GI50 in [7] is > 100 µM (inactive); in assay [8] it was 56.9 µM (inactive); in [9] it was 64.9 µM (inactive); in assay [10], > 100 µM (inactive); in assay [11], 61.1 µM (inactive); in [12], 56.2 µM (inactive). Besides, the GI50 is > 100 µM (inactive) in [13]; > 100 µM (inactive) in assay [14]; > 100 µM (inactive) in [15]; > 100 µM (inactive) in assay [16]; 5.87 µM (inactive) in assay [17]; > 100 µM (inactive) in assay [18]. Also, the GI50 in assay [19] and in assay [20] was > 100 µM (inactive) in each case.

As to `CCOP(=O)(OCC)/C(C#N)=C/c1ncc[nH]1`, the GI50 in assay [1], in assay [2], in assay [3], in assay [4], in assay [5] and in assay [6] was > 100 µM (inactive) throughout. The GI50 in assay [7], in [8], in assay [9], in assay [10], in assay [11] and in assay [12] was > 100 µM (inactive) each time. Moreover, the GI50 in [13], in [14], in [15], in assay [16], in [17] and in assay [18] was > 100 µM (inactive) throughout. Moreover, the GI50 in assay [19] and in assay [20] was > 100 µM (inactive) throughout.

Turning to `CCC(=O)O[C@H]1CC[C@H]2[C@@H]3CCC4=C/C(=N/OC(=O)c5cccc6cc7ccccc7nc56)CC[C@]4(C)[C@H]3CC[C@]12C`, the GI50 in assay [1] is > 100 µM (inactive); in assay [2] it was > 100 µM (inactive); in assay [3], > 100 µM (inactive); in assay [4] it was 41 µM (inactive); in assay [5], > 100 µM (inactive); in assay [6], > 100 µM (inactive). Also, the GI50 in [7] was 42.9 µM (inactive); in [8], 64.1 µM (inactive); in assay [9] it was 42.2 µM (inactive); in assay [10], > 100 µM (inactive); in [11], 52.8 µM (inactive); in assay [12] it was 41.4 µM (inactive). The GI50 is 76 µM (inactive) in [13]; 42.3 µM (inactive) in [14]; 50.4 µM (inactive) in assay [15]; > 100 µM (inactive) in assay [16]; 67.9 µM (inactive) in [17]; 65.8 µM (inactive) in assay [18]. Further, the GI50 in assay [19] is 51.9 µM (inactive); in assay [20], 63.4 µM (inactive).

`C[C@]12OC(=O)[C@]3(O)CC[C@H]4[C@@H](C[C@@H](O)[C@@]5(Cl)CC=CC(=O)[C@]45C)[C@]45OCC6C(=O)O[C@@H]1C[C@@]6(C)[C@H](C4=O)[C@@]32O5` (stereo not given in full): the GI50 was 0.617 µM (active) in assay [1]; 1.37 µM (inactive) in [2]; 0.787 µM (active) in [3]; 0.867 µM (active) in assay [4]; 3.82 µM (inactive) in [5]; 1.42 µM (inactive) in [6]. In addition, the GI50 was 1.55 µM (inactive) in assay [7]; 1.13 µM (inactive) in assay [8]; 0.774 µM (active) in [9]; 3.02 µM (inactive) in assay [10]; 0.542 µM (active) in assay [11]; 0.16 µM (active) in assay [12]. For the same compound, the GI50 is 3.78 µM (inactive) in [13]; 1.41 µM (inactive) in assay [14]; 0.596 µM (active) in assay [15]; 3.5 µM (inactive) in assay [16]; 0.811 µM (active) in assay [17]; 0.494 µM (active) in assay [18]. Further, the GI50 is 1.5 µM (inactive) in assay [19] and 2.01 µM (inactive) in [20].

For `C=C(Cl)C(Cl)(CBr)CCC(Br)C(C)(C)Cl` (stereo not given), the GI50 is 640 nM (active) and 175 nM (active) and 247 nM (active) in [1]; 1.63 µM (inactive) and 2.79 µM (inactive) and 2.03 µM (inactive) in [2]; 217 nM (active) and 1.02 µM (active) and 828 nM (active) in assay [3]; 1.72 µM (inactive) and 2.95 µM (inactive) and 14.5 µM (inactive) in [4]; 2.76 µM (inactive) and 1.38 µM (inactive) in [5]; 2.63 µM (inactive) and 1.42 µM (inactive) and 1.35 µM (inactive) in assay [6]. Further, the GI50 in assay [7] was 497 nM (active) and 828 nM (active) and 735 nM (active); in assay [8], 18.7 µM (inactive) and 15.6 µM (inactive) and 26.7 µM (inactive); in assay [9] it was 1.26 µM (inactive) and 2.54 µM (inactive) and 220 nM (active); in assay [10], 8.36 µM (inactive) and 1.22 µM (inactive) and 1.95 µM (inactive); in assay [11], 22.4 µM (inactive) and 16.3 µM (inactive) and 12 µM (inactive); in assay [12], 16 µM (inactive) and 13.8 µM (inactive) and 14.3 µM (inactive). In addition, the GI50 was 2.92 µM (inactive) and 1.6 µM (inactive) and 10.7 µM (inactive) in assay [13]; 6.25 µM (inactive) and 2.03 µM (inactive) and 1.26 µM (inactive) in assay [14]; 149 nM (active) and 221 nM (active) and 485 nM (active) in assay [15]; 2.36 µM (inactive) and 27.2 µM (inactive) in [16]; 11.5 µM (inactive) and 4.53 µM (inactive) and 15 µM (inactive) in assay [17]; 1.91 µM (inactive) and 12.2 µM (inactive) and 1.52 µM (inactive) in assay [18]. Also, the GI50 in assay [19] was 277 nM (active) and 1.41 µM (inactive) and 615 nM (active); in [20] it was 2.78 µM (inactive) and 1.66 µM (inactive) and 2.1 µM (inactive).
